Data: patent publication US20140031296A1, “NEW SYNTHETIC PEPTIDES AND THEIR USE” (PERGAMUM AB, priority 2011, published 2014)

Columns and labels:
[1] = tested on: TNF-α production in LPS stimulated THP-1 cells; assay: Inhibition of TNF-α production in LPS stimulated THP-1 cells (ELISA); type: cell-based, human; details: mean relative secretion, basal = 0%; for TNF-α at 40 μM peptide: LPS-stimulated level without peptide = 100%; for TNF-α at 4 μM peptide / TNF-α at 10 μM peptide: stimulated = 100%
Description: (§1) After 6 hours of incubation at +37° C., 5% CO2 and in a humid atmosphere, the cell supernatants were collected, centrifuged and kept frozen in −20° C. until analyzed for TNF-α content by ELISA (R&D Systems, Minneapolis, Minn., USA). The results are presented as mean relative secretion (%), with stimulated TNF-α level without peptide added set to 100% and basal secretion set to 0% (Table 2).
as §1, with “incubation,” for “incubation at +37° C., 5% CO2 and in a humid atmosphere,”, “centrifuged,” for “centrifuged”, “5).” for “2).”

[2] = tested on: S. aureus (CCUG 1800); assay: Minimal microbicidal concentration (MMC99) assay, S. aureus; type: cell-based; details: 2 hours; for MMC99 μM in 50% SWF: 50% heat inactivated simulated wound fluid
Description: Antimicrobial Activity was Measured as Bactericidal Effect on S. aureus Using Minimal Microbicidal Concentration, MMC99, Assay)
S. aureus (#1800; CCUG, Gothenburg, Sweden) cultured on blood-agar plates [Columbia agar (Oxoid, Basingstoke, UK) supplemented with 5% defibrinated horse blood (National Veterinary Institute (SVA), Uppsala, Sweden)] were transferred to brain heart infusion broth (3.7% BHI; Difco, BD Diagnostics, Franklin Lakes, N.J., USA) and incubated in a shaker at 250 rpm+37° C. over night. The culture was thereafter be diluted 1:10 in fresh BHI broth and incubated for additional two hours to reach log-phase growth. The bacteria were pelleted and suspended in 1% BHI medium (BHI broth diluted 100 times in ultra-pure water) to a concentration of 10^7 bacteria/ml as estimated by measuring optical density at 600 nm. Peptides were serially diluted by two-fold steps from 160 μM to 1.25 μM in 1% BHI medium. The peptides (100 μl) were thereafter incubated with bacteria (5 μl á 10^7 bact./ml) for 2 hours at +37° C. Drops (5 μl) of the suspension were placed on blood agar plates. The blood agar plates were incubated over night at +37° C. The MMC99 values, i.e. the lowest peptide concentration needed to achieve a 99% reduction of viable bacteria, were recorded (Table 3). The concentration of the bacterial suspension used in the assay was confirmed by viable counts on blood agar plates.
S. aureus (#1800; CCUG, Gothenburg, Sweden) cultured on blood-agar plates [Columbia agar (Oxoid, Basingstoke, UK) supplemented with 5% defibrinated horse blood (National Veterinary Institute (SVA), Uppsala, Sweden)] were transferred to brain heart infusion broth (3.7% BHI; Difco, BD Diagnostics, Franklin Lakes, N.J., USA) and incubated in a shaker at 250 rpm+37° C. over night. The culture was thereafter be diluted 1:10 in fresh BHI broth and incubated for additional two hours to reach log-phase growth. The bacteria were pelleted and suspended in 1% BHI medium (BHI broth diluted 100 times in ultra-pure water) to a final concentration of 10^7 bacteria/ml as estimated by measuring optical density at 600 nm.
Peptides were serially diluted by two-fold steps from 400 μM to 0.78 μM in either 1% BHI medium or in 50% heat inactivated simulated wound fluid [SWF, containing 1 part 0.1% peptone (Oxoid, Basingstoke, UK) in saline and 1 part fetal bovine serum, diluted 2 times in ultra-pure water].
The peptides (100 μl) were thereafter incubated with bacteria (5 μl a 10^7 bact./ml) for 2 hours at +37° C. Drops (5 μl) of the suspension were placed on blood agar plates. The blood agar plates were incubated over night at +37° C. The MMC99 values, i.e. the lowest peptide concentration needed to achieve a 99% reduction of viable bacteria were recorded (Table 6). The concentration of the bacterial suspension used in the assay was confirmed by viable counts on blood agar plates.
The antimicrobial effects of the peptides 232 (SEQ ID NO: 78), and 220 (SEQ ID NO:67) were analysed by MMC99 (minimal microbicidal concentration) assay against S. aureus (CCUG 1800), MRSA (CCUG 41879), P. aeruginosa (ATCC 15442), E. coli (CCUG 31246), S. pyogenes (CCUG 4207), P. acnes (CCUG 1794T), S. epidermidis (ATCC12228), K. pneumoniae (ATCC 13883), A. baumannii (ATCC 19606), and C. albicans (ATCC 64549). The peptides were purchased from Biopeptide Company (San Diego, Calif., USA) and Bachem AG (Bubendorf, Switzerland) and results are presented in Table 8A and 8B respectively.
Peptides were serially diluted in two different assay medium, 1% BHI medium (brain-heart infusion medium) or 50% heat inactivated simulated wound fluid (SWF), and thereafter incubated with the microorganisms for 2 hours. Drops of the suspension were placed on blood agar plates. The MMC99 values, i.e. the lowest peptide concentration needed to achieve a 99% reduction of viable microorganisms, were recorded. As presented in Table 8, all the peptides have the ability to kill microorganisms frequently appearing in infections. […]

[3] = screen 1, 99% reduction of viable bacteria

Row | Sequence | TNF-α at 40 μM peptide ([1]; screen 1) [%] | MMC99 μM in 1% BHI medium [2, 3] [µM] | TNF-α at 4 μM peptide ([1]; screen 2) [%] | TNF-α at 10 μM peptide ([1]; screen 2) [%] | TNF-α at 40 μM peptide ([1]; screen 2) [%] | MMC99 μM in 1% BHI medium ([2]; screen 2) [µM] | MMC99 μM in 50% SWF ([2]; screen 2) [µM]
1 | QPEATKCFQWQRNMRKVR [Peptide 104] | 132 | >160 | – | – | – | – | –
2 | QSEAEKCFQWQRNMRKVR [Peptide 107] | 108 | >160 | – | – | – | – | –
3 | QSEATKCFQWLRNMRKVR [Peptide 113] | 22 | >160 | – | – | – | – | –
4 | QSEATKLFQWQRNLRKVR [Peptide 115] | 119 | >160 | – | – | – | – | –
5 | QSEATKLFQWQRNMRKVR [Peptide 112] | 101 | >160 | – | – | – | – | –
6 | QSEATKRFQWLRNLRKVL [Peptide 119] | 10 | 20 | – | – | – | – | –
7 | QSEATKRFQWLRNLRKVLGP [Peptide 213] | – | – | 110.3 | 125.5 | 84.4 | 25 | 200
8 | QSEATKRFQWLRNLRKVLKR [Peptide 211] | – | – | 100.7 | 89.8 | 62.8 | 6.25 | 100
9 | QSEATKRFQWLRNLRKVLWW [Peptide 212] | – | – | 90.9 | 85.8 | 25.7 | 12.5 | 100
10 | QSERKKRFQWLRNLRKVL [Peptide 206] | – | – | 96.9 | 92.9 | 51.0 | 12.5 | 100
11 | QSLAEKLFQWLRNLRKVR [Peptide 117] | 13 | 2.5 | – | – | – | – | –
12 | QSLAEKLFQWLRNRRKVR [Peptide 120] | 49 | 10 | – | – | – | – | –
13 | QSLAHSLFQWLRNLRKVR [Peptide 218] | – | – | 81.8 | 55.7 | 9.2 | 6.25 | 50
14 | QSLARTFKQWARNLRKVL [Peptide 209] | – | – | 88.0 | 68.2 | 23.6 | 12.5 | 100
15 | QSLATKCFQWQRNMRKVR [Peptide 111] | 121 | 20 | – | – | – | – | –
16 | QSLATKLFQWLRNLRKVR [Peptide 114] | 15 | 2.5 | – | – | – | – | –

Row | Sequence | TNF-α at 40 μM peptide ([1]; screen 1) [%] | MMC99 μM in 1% BHI medium [2, 3] [µM] | TNF-α at 4 μM peptide ([1]; screen 2) [%] | TNF-α at 10 μM peptide ([1]; screen 2) [%] | TNF-α at 40 μM peptide ([1]; screen 2) [%] | MMC99 μM in 1% BHI medium ([2]; screen 2) [µM] | MMC99 μM in 50% SWF ([2]; screen 2) [µM]
17 | QSLATKLFQWRRNLRKVR [Peptide 121] | 35 | 10 | – | – | – | – | –
18 | QTEADKCFQWQRNMRKVR [Peptide 105] | 87 | >160 | – | – | – | – | –
19 | QTEADKCFQWQRNMRKVR [Peptide 106] (QNEADKCFQWQRNMRKVR) | 96 | 160 | – | – | – | – | –
20 | RLWRRLMRKVR [Peptide 238] | – | – | 83.9 | 89.2 | 76.5 | 12.5 | 100
21 | RSLAQKLFQWLRNLRKVR [Peptide 219] | – | – | 68.5 | 44.0 | 7.3 | 6.25 | 12.5
22 | RWCFLWRRLMRKHRRL [Peptide 240] | – | – | 78.3 | 59.9 | – | 12.5 | 25
23 | RWCKLWRRLMRKVRRL [Peptide 239] | – | – | 65.6 | 56.5 | – | 12.5 | 25
24 | SEAEKCFQWQRNMRKVR [Peptide 110] | 102 | >160 | – | – | – | – | –
25 | SQPEATKCFQWQRNMRKVR [Peptide 101] | 116 | >160 | – | – | – | – | –
26 | TQPDATKCFQWQRNMRKVR [Peptide 103] | 135 | >160 | – | – | – | – | –
27 | WCKLWRRLMRKVRR [Peptide 241] | – | – | 92.7 | 57.9 | – | 12.5 | 25
28 | WCRWLRKMVKAL [Peptide 248] | – | – | 87.1 | 80.2 | 24.2 | 25 | 50
29 | WFQWKRRMRKVR [Peptide 129] | 91 | 10 | – | – | – | – | –
30 | WFQWQRNMRKVR [Peptide 128] | 104 | 20 | – | – | – | – | –
31 | WRRWLRKMVKRL [Peptide 249] | – | – | 91.2 | 78.0 | −0.7 | 12.5 | 6.25
